Results as given in ChEMBL document CHEMBL1201862, “PubChem BioAssay data set” (2004).
Calls of active or inactive are those of the source.

Columns and labels:
[1] = biological target: Prothrombin (Bos taurus, UniProt P00735); test: thrombin protease inhibitors – biochemical, fluorescence polarization, uHTS hits, dose response (AID 602369); format: functional
[2] = biological target: T1, SUMO-activating enzyme (Homo sapiens, UniProt Q9UBT2); test: blockers of SAE1/SAE2–UBC9 SUMO transfer – biochemical, HTRF, uHTS, primary screen (AID 2006); format: protein-complex assay
T1 sequence (Q9UBE0 whole entry): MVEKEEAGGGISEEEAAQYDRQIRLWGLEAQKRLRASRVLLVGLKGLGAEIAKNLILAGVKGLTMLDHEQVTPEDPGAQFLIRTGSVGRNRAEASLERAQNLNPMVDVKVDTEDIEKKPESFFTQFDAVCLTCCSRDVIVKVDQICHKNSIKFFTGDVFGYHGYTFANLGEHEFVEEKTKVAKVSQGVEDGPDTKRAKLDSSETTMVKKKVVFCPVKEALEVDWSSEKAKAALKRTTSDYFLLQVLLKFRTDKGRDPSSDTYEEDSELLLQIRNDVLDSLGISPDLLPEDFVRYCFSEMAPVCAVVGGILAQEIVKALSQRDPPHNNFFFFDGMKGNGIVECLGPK
T1 sequence (Q9UBT2 whole entry): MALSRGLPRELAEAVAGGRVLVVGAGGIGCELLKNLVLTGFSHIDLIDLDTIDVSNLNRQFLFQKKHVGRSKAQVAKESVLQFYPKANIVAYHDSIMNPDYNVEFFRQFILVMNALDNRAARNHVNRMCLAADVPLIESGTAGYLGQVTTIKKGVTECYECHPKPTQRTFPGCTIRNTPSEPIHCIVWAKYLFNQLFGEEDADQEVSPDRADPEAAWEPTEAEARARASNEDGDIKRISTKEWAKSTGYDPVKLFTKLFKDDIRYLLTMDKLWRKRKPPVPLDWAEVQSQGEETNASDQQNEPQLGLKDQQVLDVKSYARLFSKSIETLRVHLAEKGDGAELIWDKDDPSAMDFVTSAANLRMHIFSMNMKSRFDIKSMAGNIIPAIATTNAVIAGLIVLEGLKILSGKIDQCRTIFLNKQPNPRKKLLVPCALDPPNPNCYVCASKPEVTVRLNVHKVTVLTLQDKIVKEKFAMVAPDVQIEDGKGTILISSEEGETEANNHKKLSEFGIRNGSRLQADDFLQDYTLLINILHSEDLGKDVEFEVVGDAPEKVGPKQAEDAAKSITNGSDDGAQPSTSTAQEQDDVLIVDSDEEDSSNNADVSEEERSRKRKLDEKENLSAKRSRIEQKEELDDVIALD

[3] = biological target: 26S proteasome non-ATPase regulatory subunit 14 (Homo sapiens, UniProt O00487); test: inhibition of proteasome subunit RPN11 – biochemical, fluorescence polarization, uHTS hits, confirmation (AID 602368); format: functional
[4] = biological target: T1, SUMO-activating enzyme; test: blockers of UBC9-mediated SUMO conjugation – biochemical, AlphaScreen, SUMOylation inhibitor project, confirmation (AID 2018); format: functional
[5] = biological target: Phospholipase A2 (Homo sapiens, UniProt P04054); format: functional;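 also: confirmatory dose-response counterscreen on phospholipase A2, testing hits that came from an ultra-high-throughput screen for ATG4B inhibitors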
Chain of Phospholipase A2 (P04054 whole entry): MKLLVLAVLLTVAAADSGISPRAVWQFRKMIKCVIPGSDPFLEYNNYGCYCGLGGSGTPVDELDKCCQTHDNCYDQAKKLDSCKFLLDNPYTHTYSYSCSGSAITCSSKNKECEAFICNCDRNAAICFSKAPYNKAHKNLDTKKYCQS

[6] = biological target: T2, Histone-lysine N-methyltransferase NSD2 (Homo sapiens, UniProt O96028); format: biochemical
T2 sequence (O96028 whole entry): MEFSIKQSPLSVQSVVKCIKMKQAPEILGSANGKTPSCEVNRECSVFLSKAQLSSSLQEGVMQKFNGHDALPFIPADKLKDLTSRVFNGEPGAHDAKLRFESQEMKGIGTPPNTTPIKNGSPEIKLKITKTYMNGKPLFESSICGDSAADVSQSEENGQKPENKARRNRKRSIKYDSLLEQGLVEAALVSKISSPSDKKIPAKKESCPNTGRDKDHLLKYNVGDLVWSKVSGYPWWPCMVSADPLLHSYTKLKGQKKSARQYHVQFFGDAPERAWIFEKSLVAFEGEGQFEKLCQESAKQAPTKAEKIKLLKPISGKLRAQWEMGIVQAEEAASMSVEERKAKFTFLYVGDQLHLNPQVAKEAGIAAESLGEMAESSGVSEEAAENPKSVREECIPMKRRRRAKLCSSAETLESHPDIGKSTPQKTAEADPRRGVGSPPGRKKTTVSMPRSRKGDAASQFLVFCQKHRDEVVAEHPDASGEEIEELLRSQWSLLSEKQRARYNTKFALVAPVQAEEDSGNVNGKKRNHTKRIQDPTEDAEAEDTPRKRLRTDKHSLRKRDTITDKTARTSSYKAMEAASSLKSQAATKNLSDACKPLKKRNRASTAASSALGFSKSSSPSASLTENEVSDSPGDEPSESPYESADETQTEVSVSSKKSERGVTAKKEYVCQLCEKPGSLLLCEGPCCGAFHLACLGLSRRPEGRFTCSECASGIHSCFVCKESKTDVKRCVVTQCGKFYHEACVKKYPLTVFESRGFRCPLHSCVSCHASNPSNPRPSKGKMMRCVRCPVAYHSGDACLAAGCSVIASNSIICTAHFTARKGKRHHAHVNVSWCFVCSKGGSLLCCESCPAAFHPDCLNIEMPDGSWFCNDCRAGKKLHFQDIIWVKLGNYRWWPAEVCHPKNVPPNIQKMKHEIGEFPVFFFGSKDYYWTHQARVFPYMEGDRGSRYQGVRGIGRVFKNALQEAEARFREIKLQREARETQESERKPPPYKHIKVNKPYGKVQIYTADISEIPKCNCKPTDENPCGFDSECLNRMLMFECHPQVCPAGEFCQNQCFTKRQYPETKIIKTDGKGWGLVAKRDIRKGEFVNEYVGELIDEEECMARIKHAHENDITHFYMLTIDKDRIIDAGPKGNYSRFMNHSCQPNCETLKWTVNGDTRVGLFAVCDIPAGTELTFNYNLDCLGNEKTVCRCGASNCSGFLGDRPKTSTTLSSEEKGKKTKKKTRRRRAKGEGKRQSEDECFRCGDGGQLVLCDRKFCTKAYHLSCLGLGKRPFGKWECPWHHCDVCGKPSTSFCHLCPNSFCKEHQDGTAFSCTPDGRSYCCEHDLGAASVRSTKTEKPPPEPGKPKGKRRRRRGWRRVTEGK

[7] = biological target: Intestinal-type alkaline phosphatase (Homo sapiens, UniProt P09923); test: inhibition of human intestinal alkaline phosphatase – biochemical, dose response (AID 488876); format: functional
[8] = biological target: DNA (cytosine-5)-methyltransferase 1 (Homo sapiens, UniProt P26358); test: inhibition of DNA methylation by DNMT1 – biochemical, fluorescent molecular beacon, confirmation (AID 602386); format: functional
Chain of DNA (cytosine-5)-methyltransferase 1 (P26358 whole entry): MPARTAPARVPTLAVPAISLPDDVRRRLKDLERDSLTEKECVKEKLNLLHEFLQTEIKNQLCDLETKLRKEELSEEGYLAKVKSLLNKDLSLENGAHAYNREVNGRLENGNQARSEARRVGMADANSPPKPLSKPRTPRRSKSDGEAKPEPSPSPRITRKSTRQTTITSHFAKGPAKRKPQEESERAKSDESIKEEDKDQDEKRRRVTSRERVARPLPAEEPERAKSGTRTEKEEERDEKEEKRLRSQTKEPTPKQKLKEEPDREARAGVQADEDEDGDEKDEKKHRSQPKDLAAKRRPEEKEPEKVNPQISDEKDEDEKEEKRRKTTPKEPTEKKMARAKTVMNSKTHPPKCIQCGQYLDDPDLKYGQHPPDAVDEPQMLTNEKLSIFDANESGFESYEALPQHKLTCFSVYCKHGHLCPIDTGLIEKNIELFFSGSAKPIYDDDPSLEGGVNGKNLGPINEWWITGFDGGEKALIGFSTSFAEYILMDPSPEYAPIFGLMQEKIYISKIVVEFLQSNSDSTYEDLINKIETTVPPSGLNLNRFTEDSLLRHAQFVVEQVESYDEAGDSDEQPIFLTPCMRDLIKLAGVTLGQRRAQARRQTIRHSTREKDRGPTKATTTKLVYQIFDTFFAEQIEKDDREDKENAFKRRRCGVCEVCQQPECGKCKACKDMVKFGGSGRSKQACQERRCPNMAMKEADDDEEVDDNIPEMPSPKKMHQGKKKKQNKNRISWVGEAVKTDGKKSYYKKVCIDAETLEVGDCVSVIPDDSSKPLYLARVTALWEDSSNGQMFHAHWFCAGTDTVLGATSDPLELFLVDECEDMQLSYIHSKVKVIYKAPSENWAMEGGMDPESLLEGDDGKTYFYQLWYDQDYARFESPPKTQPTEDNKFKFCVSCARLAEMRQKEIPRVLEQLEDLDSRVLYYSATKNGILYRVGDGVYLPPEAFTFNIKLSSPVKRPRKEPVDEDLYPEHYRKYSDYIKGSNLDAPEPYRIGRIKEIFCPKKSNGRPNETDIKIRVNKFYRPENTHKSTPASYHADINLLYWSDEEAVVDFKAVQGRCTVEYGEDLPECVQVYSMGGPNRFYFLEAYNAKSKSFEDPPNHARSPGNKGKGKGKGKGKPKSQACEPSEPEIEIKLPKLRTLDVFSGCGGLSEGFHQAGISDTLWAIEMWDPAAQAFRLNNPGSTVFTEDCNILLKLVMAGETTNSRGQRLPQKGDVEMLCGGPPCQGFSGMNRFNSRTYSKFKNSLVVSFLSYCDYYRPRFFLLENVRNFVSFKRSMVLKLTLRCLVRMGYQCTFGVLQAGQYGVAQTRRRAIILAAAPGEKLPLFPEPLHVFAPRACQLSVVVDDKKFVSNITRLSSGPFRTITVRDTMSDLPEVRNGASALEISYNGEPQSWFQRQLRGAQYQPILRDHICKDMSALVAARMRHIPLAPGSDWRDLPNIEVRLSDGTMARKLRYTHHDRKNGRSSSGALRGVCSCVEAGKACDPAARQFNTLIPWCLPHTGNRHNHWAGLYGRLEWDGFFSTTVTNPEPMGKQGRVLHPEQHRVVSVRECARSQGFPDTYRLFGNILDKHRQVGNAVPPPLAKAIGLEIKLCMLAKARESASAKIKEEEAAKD

[9] = biological target: Intestinal-type alkaline phosphatase (Mus musculus, UniProt P24822); test: PubChem AID 488785; format: functional
[10] = biological target: T3, Cysteine protease ATG4B (Homo sapiens, UniProt Q9Y4P1); format: functional;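 also: Fluorescence-based dose-response confirmation assay measuring inhibition of ATG4B activity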
T3 sequence (Q9Y4P1 whole entry): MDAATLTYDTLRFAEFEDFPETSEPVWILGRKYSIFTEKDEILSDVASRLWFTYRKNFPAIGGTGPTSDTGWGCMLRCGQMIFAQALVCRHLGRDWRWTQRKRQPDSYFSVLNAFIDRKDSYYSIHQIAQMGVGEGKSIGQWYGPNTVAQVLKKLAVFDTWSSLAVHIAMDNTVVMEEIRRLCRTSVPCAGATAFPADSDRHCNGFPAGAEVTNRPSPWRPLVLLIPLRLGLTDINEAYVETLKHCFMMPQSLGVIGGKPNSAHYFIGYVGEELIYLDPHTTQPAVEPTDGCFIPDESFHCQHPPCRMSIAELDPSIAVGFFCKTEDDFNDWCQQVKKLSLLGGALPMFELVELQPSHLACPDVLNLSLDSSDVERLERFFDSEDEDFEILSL

[11] = biological target: T4, Alkaline phosphatase, tissue-nonspecific isozyme (Homo sapiens, UniProt P05186); test: TNAP enzyme inhibition by screening hits, dose response, selectivity assay for mouse IAP inhibitor project, biochemical, human TNAP, uHTS hits (AID 488906); format: functional
T4 sequence (P05186 whole entry): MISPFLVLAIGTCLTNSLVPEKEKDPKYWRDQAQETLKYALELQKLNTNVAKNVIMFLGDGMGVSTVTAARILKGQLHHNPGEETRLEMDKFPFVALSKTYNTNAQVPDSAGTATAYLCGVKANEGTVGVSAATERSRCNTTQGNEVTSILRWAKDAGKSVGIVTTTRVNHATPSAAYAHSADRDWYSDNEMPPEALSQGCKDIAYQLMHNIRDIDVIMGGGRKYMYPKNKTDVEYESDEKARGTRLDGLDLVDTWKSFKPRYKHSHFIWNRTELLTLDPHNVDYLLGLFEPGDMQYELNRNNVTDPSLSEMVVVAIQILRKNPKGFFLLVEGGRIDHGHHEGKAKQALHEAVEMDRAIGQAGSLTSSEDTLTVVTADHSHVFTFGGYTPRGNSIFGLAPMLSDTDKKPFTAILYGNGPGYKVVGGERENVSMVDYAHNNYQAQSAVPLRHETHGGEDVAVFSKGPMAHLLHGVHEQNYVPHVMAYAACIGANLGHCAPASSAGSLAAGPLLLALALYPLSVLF

[12] = biological target: T5, Tyrosyl-DNA phosphodiesterase 2 (Homo sapiens, UniProt O95551); test: potency against TDP2 phosphodiesterase activity – biochemical, epi absorbance, IC50, dose response (AID 743297)
T5 sequence (O95551 whole entry): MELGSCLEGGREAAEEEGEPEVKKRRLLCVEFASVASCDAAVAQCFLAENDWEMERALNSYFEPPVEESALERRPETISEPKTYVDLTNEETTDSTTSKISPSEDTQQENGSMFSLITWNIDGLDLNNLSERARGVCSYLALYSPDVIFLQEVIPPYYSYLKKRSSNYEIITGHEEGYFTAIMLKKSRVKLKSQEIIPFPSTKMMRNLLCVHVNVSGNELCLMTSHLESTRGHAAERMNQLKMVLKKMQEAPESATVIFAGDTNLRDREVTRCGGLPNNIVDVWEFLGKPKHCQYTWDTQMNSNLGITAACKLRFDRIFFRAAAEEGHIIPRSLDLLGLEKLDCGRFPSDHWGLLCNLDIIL

[13] = biological target: 72 kDa type IV collagenase (Homo sapiens, UniProt P08253); test: Dose Response validation of uHTS RPN11 inhibitor hits using a MMP-2 Fluorescence assay.; format: functional
[14] = biological target: Keap1/Nrf2 (Homo sapiens, UniProt Q14145); test: disruptors of Keap1 binding to Nrf2 peptide – biochemical, fluorescence polarization, cherry-picked samples, dose response (AID 588683)
Chain of Keap1/Nrf2 (Q16236 whole entry): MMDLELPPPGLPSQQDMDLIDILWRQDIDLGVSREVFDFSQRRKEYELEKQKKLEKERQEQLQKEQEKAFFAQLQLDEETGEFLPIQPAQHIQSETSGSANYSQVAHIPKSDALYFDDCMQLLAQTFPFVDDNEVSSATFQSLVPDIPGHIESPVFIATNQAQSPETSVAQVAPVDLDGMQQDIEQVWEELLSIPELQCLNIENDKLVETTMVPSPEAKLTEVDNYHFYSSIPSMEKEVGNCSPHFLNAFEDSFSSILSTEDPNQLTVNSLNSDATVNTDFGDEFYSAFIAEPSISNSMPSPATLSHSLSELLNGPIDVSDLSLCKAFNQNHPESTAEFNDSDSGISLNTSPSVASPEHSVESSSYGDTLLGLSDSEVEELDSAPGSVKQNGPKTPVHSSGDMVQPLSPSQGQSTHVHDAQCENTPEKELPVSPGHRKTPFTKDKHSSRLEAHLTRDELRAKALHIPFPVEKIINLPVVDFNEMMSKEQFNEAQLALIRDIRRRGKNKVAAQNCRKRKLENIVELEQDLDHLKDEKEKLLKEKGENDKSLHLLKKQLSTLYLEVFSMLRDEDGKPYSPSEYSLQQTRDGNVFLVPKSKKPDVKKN
Chain of Keap1/Nrf2 (Q14145 whole entry): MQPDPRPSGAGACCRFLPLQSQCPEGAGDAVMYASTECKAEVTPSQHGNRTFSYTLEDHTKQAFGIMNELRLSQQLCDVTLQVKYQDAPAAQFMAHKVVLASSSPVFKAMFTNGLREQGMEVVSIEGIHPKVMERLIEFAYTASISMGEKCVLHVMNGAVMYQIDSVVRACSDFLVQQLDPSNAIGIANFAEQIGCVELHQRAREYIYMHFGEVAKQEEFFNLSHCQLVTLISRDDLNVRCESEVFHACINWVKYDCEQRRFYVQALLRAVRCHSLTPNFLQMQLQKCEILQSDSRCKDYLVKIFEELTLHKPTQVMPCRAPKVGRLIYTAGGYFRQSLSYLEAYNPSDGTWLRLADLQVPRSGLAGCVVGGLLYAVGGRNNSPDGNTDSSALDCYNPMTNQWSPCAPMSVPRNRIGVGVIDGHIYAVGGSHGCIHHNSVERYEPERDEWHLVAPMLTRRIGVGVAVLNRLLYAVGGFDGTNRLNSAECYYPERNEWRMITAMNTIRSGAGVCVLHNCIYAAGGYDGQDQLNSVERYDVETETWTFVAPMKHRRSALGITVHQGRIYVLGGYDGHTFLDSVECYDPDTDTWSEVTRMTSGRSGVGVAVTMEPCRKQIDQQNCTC

[15] = biological target: DNA dC->dU-editing enzyme APOBEC-3A (Homo sapiens, UniProt P31941); test: A3A deaminase inhibition for selectivity – biochemical, dose response (AID 504722); format: functional
[16] = biological target: DNA dC->dU-editing enzyme APOBEC-3G (Homo sapiens, UniProt Q9HC16); test: Dose Response confirmation of small molecule APOBEC3G DNA Deaminase Inhibitors via a fluorescence-based single-stranded DNA deaminase assay. [Related pubchem assays (depositor defined):AID493012, AID493028]; format: functional
[17] = biological target: ORF 73 (Human herpesvirus 8, UniProt O40947); test: KSHV LANA DNA-binding disruption – biochemical, fluorescence polarization, cherry-picked samples, dose response (AID 504725); parameters: species or system Human gammaherpesvirus 8;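 also: fluorescence polarization of a labeled DNA duplex reporting LANA DNA binding; potency is for inhibitors that block LANA binding to the DNA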
Chain of ORF 73 (O40947 whole entry): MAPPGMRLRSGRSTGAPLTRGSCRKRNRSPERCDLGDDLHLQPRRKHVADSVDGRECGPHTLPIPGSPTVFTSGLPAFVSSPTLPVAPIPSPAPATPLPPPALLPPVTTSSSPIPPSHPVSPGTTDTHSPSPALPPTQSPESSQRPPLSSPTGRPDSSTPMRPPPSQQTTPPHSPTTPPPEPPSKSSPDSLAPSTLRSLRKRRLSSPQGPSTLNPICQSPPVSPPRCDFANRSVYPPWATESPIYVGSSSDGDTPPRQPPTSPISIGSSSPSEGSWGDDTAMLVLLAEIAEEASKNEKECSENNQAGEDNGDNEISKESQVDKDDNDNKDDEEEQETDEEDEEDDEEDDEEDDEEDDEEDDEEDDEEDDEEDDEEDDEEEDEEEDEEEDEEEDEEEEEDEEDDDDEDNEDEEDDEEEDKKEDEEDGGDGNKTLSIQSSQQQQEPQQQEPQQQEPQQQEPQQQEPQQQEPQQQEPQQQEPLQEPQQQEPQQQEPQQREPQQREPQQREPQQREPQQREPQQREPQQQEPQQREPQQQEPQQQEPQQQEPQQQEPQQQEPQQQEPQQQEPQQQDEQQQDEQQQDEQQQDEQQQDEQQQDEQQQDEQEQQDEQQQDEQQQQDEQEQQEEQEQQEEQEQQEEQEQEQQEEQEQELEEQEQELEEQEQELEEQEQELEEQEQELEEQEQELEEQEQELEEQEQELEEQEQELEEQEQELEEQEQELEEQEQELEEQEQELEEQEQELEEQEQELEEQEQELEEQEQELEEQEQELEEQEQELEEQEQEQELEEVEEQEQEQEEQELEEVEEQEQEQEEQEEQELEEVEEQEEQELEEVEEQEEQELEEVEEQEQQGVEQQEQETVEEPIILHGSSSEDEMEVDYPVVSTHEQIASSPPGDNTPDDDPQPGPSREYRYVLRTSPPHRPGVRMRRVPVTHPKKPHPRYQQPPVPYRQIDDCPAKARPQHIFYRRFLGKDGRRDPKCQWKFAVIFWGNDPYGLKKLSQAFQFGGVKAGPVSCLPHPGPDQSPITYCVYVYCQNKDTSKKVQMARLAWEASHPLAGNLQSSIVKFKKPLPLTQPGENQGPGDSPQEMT

[18] = biological target: Beta-lactamase (Pseudomonas aeruginosa, UniProt Q79MP6);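 also: biochemical dose-response test of metallo-beta-lactamase enzyme inhibition, read out by epi-absorbance; purified recombinant IMP-1 metallo-beta-lactamase with nitrocefin as substrate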
[19] = biological target: Voltage-dependent T-type calcium channel subunit alpha-1H (Homo sapiens, UniProt O95180); format: functional;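 also: channel activity triggered by adding a high calcium stimulation buffer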
[20] = biological target: Beta-lactamase (Salmonella choleraesuis (strain SC-B67), UniProt Q5J463)
[21] = biological target: T6, RNA-binding protein pos-1 (Caenorhabditis elegans, UniProt G5EF15); test: disruptors of C. elegans POS-1 RNA interaction – biochemical, fluorescence polarization, dose response (AID 1964);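 also: purified POS-1 fused to maltose binding protein made in E. coli; potency of compounds blocking POS-1 binding to fluorescent RNA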
T6 sequence (G5EF15 whole entry): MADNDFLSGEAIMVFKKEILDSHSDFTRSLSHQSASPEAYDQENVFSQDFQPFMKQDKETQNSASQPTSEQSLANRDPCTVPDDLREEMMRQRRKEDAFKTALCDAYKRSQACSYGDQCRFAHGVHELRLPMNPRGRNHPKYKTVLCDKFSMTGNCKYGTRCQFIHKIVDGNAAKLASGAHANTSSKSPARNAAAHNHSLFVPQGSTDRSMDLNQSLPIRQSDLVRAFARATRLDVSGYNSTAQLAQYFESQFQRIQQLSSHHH

[22] = biological target: T7, Zinc finger protein mex-5 (Caenorhabditis elegans, UniProt Q9XUB2); test: potency of MEX-5 RNA-binding blockers – biochemical, C. elegans, fluorescence polarization, dose response (AID 1960)
T7 sequence (Q9XUB2 whole entry): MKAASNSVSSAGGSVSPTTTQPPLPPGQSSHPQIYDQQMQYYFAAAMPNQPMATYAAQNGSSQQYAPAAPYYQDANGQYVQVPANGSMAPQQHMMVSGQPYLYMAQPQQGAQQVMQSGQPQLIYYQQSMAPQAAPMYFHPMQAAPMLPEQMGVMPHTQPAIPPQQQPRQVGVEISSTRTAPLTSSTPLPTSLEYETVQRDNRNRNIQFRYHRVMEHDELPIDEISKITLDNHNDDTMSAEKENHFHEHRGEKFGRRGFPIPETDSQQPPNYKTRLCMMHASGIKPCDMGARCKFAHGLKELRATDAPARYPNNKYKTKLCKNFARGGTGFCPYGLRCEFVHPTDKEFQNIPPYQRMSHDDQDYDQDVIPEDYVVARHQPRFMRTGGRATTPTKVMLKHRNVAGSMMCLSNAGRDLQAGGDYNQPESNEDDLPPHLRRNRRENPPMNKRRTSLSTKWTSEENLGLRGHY

[23] = biological target: Genome polyprotein (dengue virus type 2, UniProt P29990); test: flavivirus cap methylation enzyme inhibition – biochemical, confirmation dose response, primary screen (AID 588689); format: functional
[24] = biological target: Heat shock protein HSP 90-alpha (Homo sapiens, UniProt P07900); format: functional, organism-based
[25] = biological target: T8, Heat shock factor protein 1 (Mus musculus, UniProt P38532); test: decrease of HSF1-responsive luciferase luminescence – cell-based, NIH3T3, dose retest, confirmation (AID 2382); format: functional;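 also: NIH3T3 fibroblasts with HSF1-driven luciferase reporter stressed by proteasome inhibitor MG132; luminescence from HSF1-driven luciferase expression after 8 hours of MG132 stress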
T8 sequence (P38532 whole entry): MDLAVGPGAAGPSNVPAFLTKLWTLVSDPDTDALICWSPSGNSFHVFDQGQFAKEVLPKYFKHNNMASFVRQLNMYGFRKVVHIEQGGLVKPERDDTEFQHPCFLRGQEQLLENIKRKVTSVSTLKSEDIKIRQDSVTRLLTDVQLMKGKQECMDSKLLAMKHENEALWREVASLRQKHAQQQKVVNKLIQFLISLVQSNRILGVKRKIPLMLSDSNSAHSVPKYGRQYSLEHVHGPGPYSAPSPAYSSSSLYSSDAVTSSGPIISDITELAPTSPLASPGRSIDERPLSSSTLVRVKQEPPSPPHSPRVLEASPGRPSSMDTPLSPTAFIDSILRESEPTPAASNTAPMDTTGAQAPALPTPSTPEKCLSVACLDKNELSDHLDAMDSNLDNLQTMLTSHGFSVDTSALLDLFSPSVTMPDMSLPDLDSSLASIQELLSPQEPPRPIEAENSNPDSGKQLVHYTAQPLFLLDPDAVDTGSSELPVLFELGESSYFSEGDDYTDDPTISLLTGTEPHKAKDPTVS

COc1cc(NS(=O)(=O)c2ccc(NC(=S)NC(=O)/C=C/c3ccco3)cc2)ncn1
IC50 [1]: 20.5 µM (active)
IC50 [2]: 26.1 µM (active)
IC50 [3]: 12.9 µM (active)
IC50 [4]: 2.41 µM (active)
IC50 [5]: > 80 µM (inactive)
AC50 [6]: 13.2 µM (active)
IC50 [7]: > 100 µM (inactive)
IC50 [8]: 2.92 µM (active)
IC50 [9]: 18.4 µM (active)
IC50 [10]: 6 µM (active)
IC50 [11]: 45.9 µM (active)
IC50 [12]: 30.4 µM (inactive)
IC50 [13]: 2.15 µM (active)
AC50 [14]: > 52 µM (inactive)

Sc1nnc(COc2ccccc2)n1/N=C/c1ccccn1
IC50 [15]: > 100 µM (inactive)
IC50 [16]: 3.99 µM (active)

Cc1n[nH]c(C)c1N1C(=O)c2cccc3c(N4CCCCCC4)ccc(c23)C1=O
AC50 [17]: > 350 µM (inactive)
IC50 [18]: > 59.6 µM (inactive)
EC50 [19]: 1.04 µM (active)
IC50 [20]: 27.8 µM (inactive)
EC50 [21]: 6.94 µM (inconclusive)
EC50 [22]: 1.72 µM (inconclusive)
AC50 [14]: 32.5 µM (active)

COc1ccc(OC)c(N2C(=O)NC(=O)/C(=C\c3ccc([N+](=O)[O-])s3)C2=O)c1
AC50 [17]: 90.7 µM (active)
IC50 [23]: 39.9 µM (active)
AC50 [24]: 4.17 µM (active)
EC50 [25]: > 195 µM (not active)
